What was measured:
[1] = target: hypoxanthine phosphoribosyltransferase (Salmonella typhimurium); test: Kinetic inhibition constant of compound with bacterial Hypoxanthine Phosphoribosyltransferase (HPRT)
[2] = target: hypoxanthine phosphoribosyltransferase (Trypanosoma cruzi); test: Kinetic inhibition constant of compound with Trypanosoma cruzi Hypoxanthine Phosphoribosyltransferase (HPRT)

| Ki [1] [nM] | SMILES | Ki [2] [nM] |
| --- | --- | --- |
| > 25000 | O=C(Nc1cc2c3ccccc3ccc2c2ccccc12)C(Cl)Cl [2,2-Dichloro-N-chrysen-6-yl-acetamide] | 500 |
| – | Fc1cc2c3ccccc3ccc2c2ccccc12 [6-Fluoro-chrysene] | 2800 |
| – | O=[N+]([O-])c1cc2c3ccccc3ccc2c2ccccc12 [6-Nitro-chrysene] | 6700 |
| – | Nc1cc2c3ccccc3ccc2c2ccccc12 [Chrysen-6-ylamine] | 600 |
